{"source": "patent US20170246144A1", "about": "“METHOD OF PREVENTING OR TREATING SPINOCEREBELLAR ATAXIA BY ADMINISTRATING SILIBININ” (National Taiwan Normal University, priority 2016, published 2017)", "key": {"SH-SY5Y cells [1]": {"system": "SH-SY5Y cells", "test": "Western blotting of cleaved caspase-9, cleaved caspase-3 and cleaved PARP after MSG", "format": "cell-based, Human", "details": "15 μM, 100 mM MSG, 24 hours", "procedure": "FIGS. 5A-5D show the effects of SB on the levels of cleaved caspase-9, cleaved caspase-3, and cleaved poly(ADP-ribose) polymerase (PARP) in SH-SY5Y cells treated with MSG FIG. 5A: The levels of […] in 1×10^6 SH-SY5Y cells were measured by western blotting, wherein the control group (Ctrl) was untreated SH-SY5Y cells or the cells were treated with 100 mM MSG, 100 mM MSG+15 μM SB or 100 mM MSG+10 μM MK801 (MK) for 24 hours. Actin was used as a loading control. FIGS. 5B-5D show the quantification results measured by western blotting. Data were the mean values of three independent experiments.\nCaspase belongs to cysteine protease family which is typically closely related to apoptosis, wherein the activation of caspase-9, caspase-3 and […] PARP is associated with delayed excitotoxicity damages. Therefore, western blotting was performed to analyze whether silibinin can protect SH-SY5Y cells from death via caspase-dependent apoptosis pathway in the present embodiment."}, "SCA17 transgenic mice": {"system": "SCA17 transgenic mice", "test": "Western blotting of TBP/polyQ aggregation and cleaved caspase 3 in cerebellum of SCA17 mice", "format": "in vivo", "details": "4.5 mg/kg i.p. once every 2 days, 20 weeks old", "procedure": "FIGS. 11A and 11B show the effects of SB on the levels of TBP (N12) and cleaved caspase-3 in SCA17 transgenic mice. Mice were grouped into wild type-saline (WT-saline), transgenic-saline (TG-saline), and transgenic-SB treatment (TG-SB) groups. Mice were injected intraperitoneally with saline or SB (4.5 mg/kg) at 8-week old once every 2 days. FIG. 11A: The extent of TBP aggregation (detected with TBP (N12) antibody) and the levels of cleaved caspase-3 in the cerebella of mice were measured by western blotting at 20-week old. Actin was used as a loading control. […] The results were shown as mean±SEM, n=6, *p<0.05, comparing to the TG-saline group.\n(§1) Since the SCA17 mice were 8 weeks old, the mice were injected intraperitoneally with silibinin in saline at 4.5 mg/kg once every 2 days, designated as TG_SB group. The mice in TG_saline group were injected with same amount of saline.\nIn order to understand whether silibinin can reduce TBP/polyQ protein aggregation and the expression of cleaved-caspase 3 in the cerebellum of SCA17 mouse, TBP/polyQ protein aggregation and the expression of cleaved-caspase 3 in the cerebellum of SCA17 mouse were measured. […]"}, "SH-SY5Y cells [2]": {"system": "SH-SY5Y cells", "test": "MTT cytotoxicity of silibinin toward SH-SY5Y cells", "format": "cell-based", "details": "Homo sapiens, 24 hours, read-out: cyto-toxicity toward SH-SY5Y cells, IC50", "text": "FIGS. 1A and 1B show the effects of silibinin (SB) in reducing the death of SH-SY5Y cell induced by mono-sodium glutamate (MSG). […] Data were the mean values of three independent experiments. Ctrl: control group.\nIn order to monitor the cyto-toxicity of silibinin and its ability in resisting glutamatergic excitotoxicity, MTT colorimetric assay was used to measure the cell viability rate of neuroblastoma SH-SY5Y cells which were pre-treated with silibinin and mono-sodium glutamate (MSG).\nAfter the treatment, 0.5 mg/mL MTT was added to the culture media, and the cells were incubated for 3 hours at 37° C. 100 μL lysis solution (10% sodium dodecyl sulfate (SDS) and 0.01N HCl) was added and the absorbance of the media was read at OD570. The percentage of cell viability was calculated as follows:\nCell viability (%)=(OD570 of experimental well/OD570 of control well)×100%"}, "[3]": {"test": "Body weight of SCA17 transgenic mice", "format": "in vivo", "details": "4.5 mg/kg i.p. once every 2 days, 10 to 20 weeks old", "procedure": "FIGS. 10A-10F show the effects of SB on the body weight and motor performance in SCA17 transgenic mice. Mice were grouped into wild type-saline (WT-saline), transgenic-saline (TG-saline), and transgenic-SB treatment (TG-SB) groups. Mice were injected intraperitoneally with saline or SB (4.5 mg/kg) at 8-week old once every 2 days. […] FIG. 10E and FIG. 10F show respectively the stride length of front-limb/hind-limb at the right-side and the left-side. The values represent means±SD, n=6. *p<0.05, comparing to the TG-saline group.\nIn order to understand the efficacy of silibinin in treating SCA17 in vivo, SCA17 transgenic mice (referring as SCA17 mice hereinafter) were used, which were kindly provided by Dr. Hsiu-Mei Hsieh in NTNU.\nThe mice were housed individually in ventilated cages with a 12-hour light/dark cycle. All mice were maintained in the animal facility in NTNU under specific pathogen-free conditions in accordance with institutional guidelines of the Animal Care and Use Committee at NTNU. The experimental animals were used for motor behavioral assessments, footprint test and the protein aggregation analysis in cerebellum.\nas §1"}}, "note": "pIC50: −log10 of the molar value."}
{"compound": "COc1cc(C2Oc3cc([C@H]4Oc5cc(O)cc(O)c5C(=O)[C@@H]4O)ccc3OC2CO)ccc1O", "note": "(stereo partly shown) [silibinin]", "values": [{"measurement": "reduction of cleaved PARP level, compared to the increased level with MSG only", "setting": "SH-SY5Y cells [1]", "result": 52, "unit": "%"}, {"measurement": "reduction of cleaved-caspase-3 level, compared to the increased level with MSG only", "setting": "SH-SY5Y cells [1]", "result": 83, "unit": "%"}, {"measurement": "reduction of cleaved-caspase-9 level, compared to the increased level with MSG only", "setting": "SH-SY5Y cells [1]", "result": 125, "unit": "%"}, {"measurement": "inhibition of TBP/polyQ protein aggregation in cerebellum", "setting": "SCA17 transgenic mice", "result": 100, "unit": "%"}, {"measurement": "inhibition of cleaved caspase 3 protein level in cerebellum", "setting": "SCA17 transgenic mice", "result": 25, "unit": "%"}, {"measurement": "pIC50", "setting": "SH-SY5Y cells [2]", "result": 4.52}, {"measurement": "body weight compared to WT_saline group", "setting": "[3]", "result": "no significant differences"}]}
